This is an account of results in US5464861A, “2-thioindoles (selenoindoles) and related disulfides (selenides) which inhibit protein tyrosine kinases and which have antitumor properties” (Warner-Lambert, priority 1993, dated 1995).

Assay [1] addresses T1, human PDGF β receptor intracellular tyrosine kinase domain (Homo sapiens, UniProt P09619).
T1 construct: human PDGF β receptor intracellular tyrosine kinase domain; made in house; host or cells: SF9 insect cells, recombinant baculovirus; cell lysates used
The assay is described as follows: PDGF receptor tyrosine kinase inhibition assay (P^32 incorporation in Glu-Tyr). The format is biochemical. Particulars: for inhibition at 100 µM: read-out: % Inhibition at 100 μM (PDGFR TK); for IC50: Table 2, PDGF-R, IC50 entries, read-out: IC50 (PDGFR TK).
Procedure: Recombinant baculovirus containing human PDGF β receptor intracellular tyrosine kinase domain was used to infect SF9 cells to overexpress the protein, and cell lysates were used for the assay. The ability of the tyrosine kinase to phosphorylate glutamate tyrosine substrate in the presence of P^32 -ATP and inhibitor was measured by counting the incorporation of P^32 in Glu-Tyr in TCAprecipitable material.

The target of assay [2] is T2, epidermal growth factor receptor tyrosine kinase (Homo sapiens, UniProt P00533).
T2 construct: A native 170,000 epidermal growth factor receptor-kinase complex from shed plasma membrane vesicles; endogenous in cells
T2 sequence (P00533 25-1210): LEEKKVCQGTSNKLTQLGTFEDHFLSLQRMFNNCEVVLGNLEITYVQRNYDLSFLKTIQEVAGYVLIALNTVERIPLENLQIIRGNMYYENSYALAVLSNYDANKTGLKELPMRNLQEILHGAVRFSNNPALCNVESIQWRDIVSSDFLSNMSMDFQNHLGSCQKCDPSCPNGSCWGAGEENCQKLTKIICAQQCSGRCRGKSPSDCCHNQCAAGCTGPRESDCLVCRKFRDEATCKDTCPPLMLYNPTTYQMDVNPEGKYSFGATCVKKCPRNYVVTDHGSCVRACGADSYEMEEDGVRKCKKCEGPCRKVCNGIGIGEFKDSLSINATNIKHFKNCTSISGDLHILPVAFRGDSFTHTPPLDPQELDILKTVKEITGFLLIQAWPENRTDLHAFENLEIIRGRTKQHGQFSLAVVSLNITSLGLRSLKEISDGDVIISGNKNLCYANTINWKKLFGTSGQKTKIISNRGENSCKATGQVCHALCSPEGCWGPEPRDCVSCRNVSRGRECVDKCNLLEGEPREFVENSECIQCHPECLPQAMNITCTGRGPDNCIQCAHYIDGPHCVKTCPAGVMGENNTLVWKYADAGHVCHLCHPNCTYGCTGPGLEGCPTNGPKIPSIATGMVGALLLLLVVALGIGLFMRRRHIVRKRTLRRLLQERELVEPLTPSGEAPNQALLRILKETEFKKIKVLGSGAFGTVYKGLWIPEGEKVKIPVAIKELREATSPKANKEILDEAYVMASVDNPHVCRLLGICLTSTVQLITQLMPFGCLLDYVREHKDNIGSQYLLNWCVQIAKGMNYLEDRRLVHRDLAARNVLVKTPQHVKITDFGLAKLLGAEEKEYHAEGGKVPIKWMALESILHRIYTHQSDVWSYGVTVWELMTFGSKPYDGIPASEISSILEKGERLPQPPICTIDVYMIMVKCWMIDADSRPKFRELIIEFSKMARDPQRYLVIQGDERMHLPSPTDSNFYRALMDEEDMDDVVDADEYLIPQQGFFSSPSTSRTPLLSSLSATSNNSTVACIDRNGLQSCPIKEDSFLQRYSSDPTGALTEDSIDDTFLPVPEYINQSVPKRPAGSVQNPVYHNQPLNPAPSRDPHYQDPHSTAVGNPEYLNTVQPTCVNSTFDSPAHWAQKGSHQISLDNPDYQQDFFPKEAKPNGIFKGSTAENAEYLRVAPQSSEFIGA
T2 sequence (P01133 971-1023 partner limits assumed): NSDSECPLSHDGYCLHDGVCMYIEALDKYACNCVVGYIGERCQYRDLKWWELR
The experiment in a line: EGF receptor tyrosine kinase assay (P^32 incorporation in GAT). The format is biochemical. Particulars: for inhibition at 100 µM: EGRF-R, read-out: % Inhibition at 100 μM (EGFR TK). On the procedure:
At the time of assay, membranes were solubilized in 4% Triton X-100 and glycerol. The reaction is carried out in wells of a 96-well microtiter plate in a total volume of […]. Buffer containing 20 mMHepes (pH 7.4), 15 mMMgCl2, mM MnCl2, and 0.02% BSA followed by […] of membrane protein and 150 ng of epidermal growth factor. The plates are incubated for 10 minutes at room temperature to activate the receptor kinase. […] ATP plus or minus compound are added and incubated 10 minutes at room temperature.

[3] abbreviates: Table 2, EGRF-R, IC50 entries, read-out: IC50 (EGFR TK).

Read-outs that look alike come from different tables or passages of the source.

T1 sequence (P09619 554-1106 limits assumed): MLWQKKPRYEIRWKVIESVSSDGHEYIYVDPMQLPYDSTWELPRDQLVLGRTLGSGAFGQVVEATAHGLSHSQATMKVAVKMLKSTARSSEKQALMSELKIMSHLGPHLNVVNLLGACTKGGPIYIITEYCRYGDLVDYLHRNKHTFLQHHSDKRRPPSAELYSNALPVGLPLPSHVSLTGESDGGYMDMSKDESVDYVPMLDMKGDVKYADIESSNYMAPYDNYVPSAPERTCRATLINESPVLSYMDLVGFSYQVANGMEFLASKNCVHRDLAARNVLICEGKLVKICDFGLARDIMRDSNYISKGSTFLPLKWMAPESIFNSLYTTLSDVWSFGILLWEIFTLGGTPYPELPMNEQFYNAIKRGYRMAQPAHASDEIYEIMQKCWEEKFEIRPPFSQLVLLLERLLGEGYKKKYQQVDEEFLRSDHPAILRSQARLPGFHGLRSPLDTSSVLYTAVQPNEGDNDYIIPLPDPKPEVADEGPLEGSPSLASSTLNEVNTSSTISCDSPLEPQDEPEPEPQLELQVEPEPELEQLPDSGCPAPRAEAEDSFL

In the case of `Cn1c(SSc2c(C(N)=O)c3ccccc3n2C)c(C(N)=O)c2ccccc21` [Compound 118, 2,2'-dithiobis[1-methylindolyl-3-carboxamide]], in assay [1] (at 100 μM, PDGF-R), the inhibition at 100 µM was 78%. Further, in assay [2] (setting [3]), the IC50 amounted to 4.7 µM.

As to `COC(=O)c1ccc(C(=O)C2C(=S)N(C)c3ccccc32)cc1` (centres unmarked) [Compound 26, 3-(4'-carbomethoxybenzoyl) -1-methyl-2-indolinethione], the inhibition at 100 µM in assay [1] came out at 5%. On the same count and under the same terms, next, `Cn1c(SSc2c(C(=O)c3ccccc3)c3ccccc3n2C)c(C(=O)c2ccccc2)c2ccccc21` [Compound 100, bis[3-benzoyl-1-methylindole-(2)]disulfide]: 23%. With `Cn1c(SSc2c(C(=O)Nc3ccccc3C(=O)O)c3ccccc3n2C)c(C(=O)Nc2ccccc2C(=O)O)c2ccccc21` [Compound 109, 2,2'-dithiobis[N-(2'-carboxy)phenyl-1-methylindolyl-3-carboxamide]], in assay [1] (at 100 μM, PDGF-R), the inhibition at 100 µM stood at 8%. The 50% inhibitory concentration (IC50) in assay [2] (setting [3]) came to 47 µM. For `O=C(CC1C(=S)Nc2ccccc21)NCc1ccccc1` (centres unmarked) [Compound 6, N-benzyl (2-thioxo-3-indolinyl) acetamide], in that order: 8.5% and 25 µM. As to `O=C(CCCc1c(SSc2[nH]c3ccccc3c2CCCC(=O)NCc2ccccc2)[nH]c2ccccc12)NCc1ccccc1` [Compound 69], the inhibition at 100 µM came to 8.9% in assay [1] (at 100 μM, PDGF-R) and 55.6% in assay [2]. The like results for `O=C(NCc1ccccc1)C(Cc1c(SSc2[nH]c3ccccc3c2CC(NC(=O)C(F)(F)F)C(=O)NCc2ccccc2)[nH]c2ccccc12)NC(=O)C(F)(F)F` (racemic) [Compound 61, 2,2'-dithiobis[N-benzyl-α-trifluoroacetylamino-3-(3-indolyl)propanamide]] were, in that order, 11% and 37%. `NC(=O)CCc1c(SSc2[nH]c3ccccc3c2CCC(N)=O)[nH]c2ccccc12` [Compound 50]: the inhibition at 100 µM in assay [1] (at 100 μM, PDGF-R) came to 62.6%. For the same compound, in assay [2] (setting [3]), the IC50 stood at 16 µM.

With `Cn1c(SSc2c(C(=O)Nc3ccccc3)c3cc(C#N)ccc3n2C)c(C(=O)Nc2ccccc2)c2cc(C#N)ccc21` [Compound 88, 2,2'-dithiobis[N-phenyl-5-cyano-1-methylindolyl-3-carboxamide]], the inhibition at 100 µM in assay [1] (at 100 μM, PDGF-R) stood at 51%. Further, the 50% inhibitory concentration (IC50) in assay [2] (setting [3]) worked out at 54 µM. The like results for `Cn1c(SSc2c(C(=O)Nc3ccccc3)c3cc(Br)ccc3n2C)c(C(=O)Nc2ccccc2)c2cc(Br)ccc21` [Compound 89, 2,2'-dithiobis[N-phenyl-5-bromo-1-methylindolyl-3-carboxamide]] were, in that order, 3% and 11.4 µM.

As to `COC(=O)CC1C(=S)Nc2ccccc21` (centres unmarked) [Compound 3, methyl 2-(2-thioxo-3-indolinyl)acetate], the inhibition at 100 µM in assay [1] (at 100 μM, PDGF-R) came to 8.6%; in assay [2] it was 43%. Take `Cn1c(SSc2c(C(=O)Nc3ccccc3)c3cc(C(F)(F)F)ccc3n2C)c(C(=O)Nc2ccccc2)c2cc(C(F)(F)F)ccc21` [Compound 84, 2,2-dithiobis [N-phenyl-1-methyl-5-(trifluoro-methyl)indolyl-3-carboxamide]]: the inhibition at 100 µM in assay [1] (at 100 μM, PDGF-R) came out at 22%; in assay [2] it was 35%. The like results for `CN(C(=O)c1c(SSc2c(C(=O)N(C)c3ccccc3)c3ccccc3n2C)n(C)c2ccccc12)c1ccccc1` [Compound 113, 2,2 '-dithiobis [N-methyl-N-phenyl-1-methylindolyl-3-carboxamide]] were, in that order, 29% and 5%. For `Cn1c(SSc2c(C(=O)Nc3ccccc3)c3ccc(Cl)cc3n2C)c(C(=O)Nc2ccccc2)c2ccc(Cl)cc21` [Compound 85, bis[N-phenyl 6-chloro-1-methylindolyl-3-carboxamide-(2)]disulfide], in that order: 7% and 8%. With `O=C(CCc1c(SSc2[nH]c3ccccc3c2CCC(=O)NCCc2ccccc2)[nH]c2ccccc12)NCCc1ccccc1` [Compound 54, 2,2'-dithiobis[N-(2-phenylethyl) -3-(3-indolyl)propanamide]], the inhibition at 100 µM in assay [1] (at 100 μM, PDGF-R) came out at 20.6%. In addition, in assay [2] (setting [3]), the IC50 turned out to be 29 µM.

With `COc1ccc2c(c1)c(C(=O)Nc1ccccc1)c(SSc1c(C(=O)Nc3ccccc3)c3cc(OC)ccc3n1C)n2C` [Compound 80, bis[N-phenyl 5-methoxy-1-methylindolyl-3-carboxamide-(2)]disulfide], the inhibition at 100 µM in assay [1] (at 100 μM, PDGF-R) is 16%; in assay [2] it was 0%. As to `Cn1c(SSc2c(C(=O)NCC(=O)O)c3ccccc3n2C)c(C(=O)NCC(=O)O)c2ccccc21` [Compound 112, 2,2'-dithiobis[N-carboxymethyl1-methylindolyl-3-carboxamide]], the inhibition at 100 µM in assay [1] (at 100 μM, PDGF-R) was determined as 69%. Further, the IC50 in assay [2] (setting [3]) was determined as 10 µM. Regarding `COC(=O)CCCC1C(=S)N(C)c2ccccc21` (centres unmarked) [Compound 18, methyl 4-(1-methyl-2-thioxo-3-indolyl)butanoate], the inhibition at 100 µM in assay [1] (at 100 μM, PDGF-R) is 9%; in assay [2] it was 2%. In the case of `CONC(=O)CCc1c(SSc2[nH]c3ccccc3c2CCC(=O)NOC)[nH]c2ccccc12` [Compound 52], the inhibition at 100 µM in assay [1] (at 100 μM, PDGF-R) is 18.3%. Also, the IC50 in assay [2] (setting [3]) was 68.2 µM. For the compound `Cn1c(SSc2c(C(=O)Nc3ccccc3)c3cc([N+](=O)[O-])ccc3n2C)c(C(=O)Nc2ccccc2)c2cc([N+](=O)[O-])ccc21` [Compound 86, 2,2'-dithiobis [N-phenyl-1-methyl-5-nitroindolyl-3-carboxamide]], in assay [1], the inhibition at 100 µM was found to be 5%. Moreover, half-maximal inhibition in assay [2] (IC50) was put at 4.9 µM. Turning to `Cc1ccc2c(C(=O)Nc3ccccc3)c(SSc3c(C(=O)Nc4ccccc4)c4ccc(C)cc4n3C)n(C)c2c1` [Compound 77, bis [N-phenyl 1,6-dimethylindolyl-3-carboxamide-(2)]disulfide], the inhibition at 100 µM in assay [1] (at 100 μM, PDGF-R) amounted to 1%; in assay [2], 9%.

On to `Cn1c(SSc2c(C(=O)NCC(O)CO)c3ccccc3n2C)c(C(=O)NCC(O)CO)c2ccccc21` (centres unmarked) [Compound 114, 2,2'-dithiobis [N-(2,3-dihydroxypropyl)-1-methylindolyl-3-carboxamide]], for which the IC50 in assay [1] worked out at 7 µM; in assay [2] (setting [3]), 42.9 µM. Turning to `Cn1c(SSc2c(C(=O)Nc3ccncc3)c3ccccc3n2C)c(C(=O)Nc2ccncc2)c2ccccc21` [Compound 116, 2,2'-dithiobis[N-(4-pyridyl)-1-methylindolyl-3-carboxamide]], the IC50 in assay [1] came to 7.9 µM. Further, in assay [2], the inhibition at 100 µM was 4%. For the compound `O=C(NCc1ccccc1)c1c(SSc2[nH]c3ccccc3c2C(=O)NCc2ccccc2)[nH]c2ccccc12` [Compound 125, 2,2'-dithiobis [N-benzylindolyl-3-carboxamide]], the inhibition at 100 µM in assay [2] came to 78%.

For the compound `Cn1c(SSc2c(C(=O)Nc3cccc(C(=O)O)c3)c3ccccc3n2C)c(C(=O)Nc2cccc(C(=O)O)c2)c2ccccc21` [Compound 107, 2,2'-dithiobis[N-(3-carboxy)phenyl-1-methylindolyl-3-carboxamide]], the IC50 in assay [2] (setting [3]) worked out at 12 µM. In the case of `COC(=O)c1cccc(NC(=O)c2c(SSc3c(C(=O)Nc4cccc(C(=O)OC)c4)c4ccccc4n3C)n(C)c3ccccc23)c1` [Compound 106, 2,2'-dithiobis [N-(3'-carbomethoxy)phenyl-1-methylindolyl-3-carboxamide]], the inhibition at 100 µM in assay [2] came out at 34%.
